Series [1] in a line: Physicochemical characteristics of lipid nanoparticle (LNP) entrapping siRNA (dynamic light scattering, Ribogreen entrapment, apparent pKa). The following applies: for Size: number-weighted average, mean of n≥3; for Entrapment: siRNA entrapment, LNP sulfur lipid/DSPC/cholesterol/PEG-lipid 50/10/38.5/1.5, N/P 3. As for the experimental part: (§1) LNP-mRNA systems were prepared as previously described (Kulkarni, J. A. et al. ACS Nano 12, 4787-4795 (2018); and Kulkarni, J. A. et al. Nanoscale 11, 9023-9031 (2019), each of which is incorporated herein by reference). Briefly, lipid components (ionizable cationic lipid, cholesterol, DSPC, and PEG-lipid) at appropriate ratios were dissolved in ethanol to a concentration of 10 mM total lipid. Luciferase encoding mRNA was dissolved in 25 mM sodium acetate pH 4 buffer to achieve an amine-to-phosphate (N/P) ratio of 6. The two solutions were mixed through a T-junction mixer at a total flow rate of 20 mL/min, and a flow rate ratio of 3:1 v/v (corresponding to 15:5 mL/min aqueous:organic phase). The resulting suspension was subsequently dialyzed against PBS pH 7.4. siRNAs were dissolved in 25 mM sodium acetate pH 4 buffer to achieve an amine-to-phosphate (N/P) ratio of 3. The two solutions were mixed through a T-junction mixer at a total flow rate of 20 mL/min, and a flow rate ratio of 3:1 v/v (corresponding to 15:5 mL/min aqueous:organic phase). The resulting suspension was subsequently dialyzed against PBS pH 7.4.
(§2) The hydrodynamic diameter and size distribution of LNP-mRNA and LNP-siRNA systems were analyzed by dynamic light scattering using a Malvern Zetasizer Nano ZS. Data presented as number-weighted average size. Lipid concentrations were measured using the Cholesterol E Total-Cholesterol assay (Wako Diagnostics, Richmond, VA). RNA concentration and entrapment were measured using the Quant-iT Ribogreen RNA assay as described elsewhere (Kulkarni, J. A. et al. ACS Nano 12, 4787-4795 (2018); and Kulkarni, J. A. et al. Nanoscale 11, 9023-9031 (2019)).
LNPs were prepared composed of ionizable cationic sulfur-containing lipid/DSPC/cholesterol/PEG-lipid at molar ratios of 50/10/38.5/1.5 and siRNA (at N/P ratio of 3) as described in the above Methods and Materials. The data are based on n≥3 experiments and values reported are means±SD.
Compound 13 (MF019; see Example 1) produced siRNA formulations having desirable physicochemical characteristics as shown in Table 3 below. The polydispersity index (PDI) of the resulting nanoparticles was <0.1, with an average LNP size ˜45 nm.

The subject of a further series is Factor VII. Put plainly: In vivo analysis of Factor VII (FVII) silencing using LNP-siRNA systems. The note with it: 0.3 mg/kg LNP-siFVII intravenous, mice, 24 h, FIG. 6. The procedure:
FVII knockdown study were performed as previously described.^3 In brief, LNP-siRNA were administered intravenously into WT mice (Charles River Laboratories, Wilmington, MA). Animals were euthanized after 24 h, blood was collected, serum was separated from whole blood using Microtainer Serum Separator tubes (Becton Dickinson, Franklin Lakes, NJ), and the residual serum FVII levels were determined. All procedures were approved by the Animal Care Committee at the University of British Columbia and were performed in accordance with guidelines established by the Canadian Council on Animal Care.
The graph depicts residual Factor VII following intravenous administration of various doses of the LNP-siFVII (see Materials and Methods above).

For another series, the system named is HepG2 cells. Put plainly: In vitro analysis of luciferase expression using LNP-mRNA systems. The note with it: LNP-mRNA (firefly luciferase) at 0.125, 0.25, 0.5 and 1 μg/mL, 24 hours post treatment, versus KC2 LNP. It is filed as cell-based. The procedure: To assess LNP-mRNA efficacy in vitro, HepG2 cells were seeded at 8,000 cells/well in 96-well plates and cultured in DMEM supplemented with 10% FBS. LNP systems entrapping luciferase mRNA were added at various concentrations and luciferase expression was analyzed 24 hours post-treatment using the Steady-Glo Luciferase kit (Promega, Madison, WI).
The in vitro gene expression efficacy of LNP systems entrapping mRNA encoding for firefly luciferase was assessed. HepG2 cells were treated at different doses (0.125, 0.25, 0.5 and 1 μg/mL) using the above LNP-mRNA systems. Luciferase expression was analyzed 24 hours post treatment. Ionizable cationic lipid used was either KC2 (DLin-KC2-DMA) or compound 13 (MF019; see Example 1). In each case, the RLU was higher for compound 13 (MF019) than for KC2.

A short description of series [2]: Physicochemical characteristics of LNPs comprising mRNA and sulfur lipid (dynamic light scattering, Ribogreen entrapment). The procedure:
as §1, §2
LNPs were prepared comprising ionizable cationic sulfur-containing lipid/DSPC/cholesterol/PEG-lipid at molar ratios of 50/10/38.5/1.5 and mRNA (at N/P ratio of 6) as described in the Materials and Methods. The size, PDI and entrapment percentage were determined as set out in the Materials and Methods and the results are shown in Table 2 below. The data are based on n≥3 experiments and values reported are means±SD. […]

[3] abbreviates: LNP sulfur lipid/DSPC/cholesterol/PEG-lipid 50/10/38.5/1.5, siRNA, N/P 3.

On to `CCCCCSCSCCCCCCCCC(CCCCCCCCSCSCCCCC)OC(=O)CCCN(C)C` [compound 13, 6,8,26,28-tetrathiatritriacontan-17-yl 4-(dimethylamino)butanoate], for which the PDI came to 0.028 in series [1] (setting [3]) and 0.054 in series [2] (LNP sulfur lipid/DSPC/cholesterol/PEG-lipid 50/10/38.5/1.5, mRNA, N/P 6). Besides, in series [1] (setting [3]), the pKa amounted to 6.41. Moreover, the Size in series [1] (setting [3]) is recorded as 43 nm; in series [1] (LNP sulfur lipid/DSPC/cholesterol/PEG-lipid 50/10/38.5/1.5, siRNA, N/P 3, listed as Compound 13), ~45 nm; in series [2] (LNP sulfur lipid/DSPC/cholesterol/PEG-lipid 50/10/38.5/1.5, mRNA, N/P 6, number-weighted average, mean of n≥3), 79 nm. For the same compound, the “polydispersity index (PDI)” value in series [1] (LNP with siRNA, N/P 3) is listed as < 0.1. Besides, the nucleic acid entrapment entry in series [1] (formulated in a lipid nanoparticle, nucleic acid not specified) is recorded as “above 93%”. For the same compound, the Entrapment in series [1] is >93%; in series [1] (listed as Compound 13) it was > 93%; in series [2] (mRNA entrapment, LNP sulfur lipid/DSPC/cholesterol/PEG-lipid 50/10/38.5/1.5, N/P 6), >93%. Further, the “Factor VII knock down (residual serum FVII)” value in the series with Factor VII is recorded as “almost complete knock down”. Besides, the “Luciferase expression (RLU) compared with KC2” value in the series with HepG2 cells was “higher”.

Usually pKa stands for the negative logarithm of the acid dissociation constant.

These data come from patent US20240116862A1, “SULFUR-CONTAINING LIPIDS” (THE UNIVERSITY OF BRITISH COLUMBIA, priority 2021, published 2024).
